In a melting point compilation (Tetko et al.):

melting point [°C]	Compound
115 to 116	Clc1ccc(N2CCCC2)nn1
151 to 153	C#CCN1CCC[C@H]1C(=O)O
149 to 151	Cc1cccc(-c2nc(C(=O)O)c(C)[nH]2)c1
180 to 184	COc1ccc(S(=O)(=O)N2CCOCC2)cc1C(=O)O
46 to 48	CC(O)C1CCCCN1C(=O)OC(C)(C)C (configuration not stated)
187 to 189	COc1ccc(C2C(C(=O)O)CC(=O)N2C2CC2)cc1 (configuration not stated)
185 to 187	COc1ccc(-c2nnc(N)s2)cc1
201 to 203	Nc1nc(CCl)nc2oc(-c3ccccc3)c(-c3ccccc3)c12
222 to 224	Cc1cc(=O)[nH]c(-c2ccc(N)cc2)n1
207 to 209	NS(=O)(=O)c1cc(F)cc(C(=O)O)c1Br
99 to 101	NC(=O)CCc1ccc(F)c(F)c1
262 to 264	O=c1[nH]cnc2cc(Br)ccc12
234 to 236	Cc1cc(C)c(C(=O)O)c(=O)[nH]1
169 to 171	Cc1ccc(C(=O)Nc2cccc(C(F)(F)F)c2)cc1O
114 to 116	Cc1cc(NC(=O)CN2CCNCC2)no1
159 to 161	Cc1ccc(C(=O)N2CCSCC2)cc1O
188 to 190	Cc1c(N)cc(C(N)=O)cc1F
175 to 177	CN(CC(=O)O)S(=O)(=O)c1cccnc1
137 to 139	NNc1cncc(Cl)n1
125 to 135	COC(=O)C(=O)CC(=O)c1ccc(F)cc1
220 to 222	CC(NC1=NS(=O)(=O)c2ccccc21)C(=O)O (configuration not stated)
120 to 122	CCOC(=O)Cc1csc(NC(=O)OCC(F)(F)F)n1
46 to 48	COc1ccc2c(c1)NCCCC2
159 to 161	O=C(CCl)Nc1ccccc1Sc1ccccc1
179 to 181	O=C(O)c1cc(Br)c(Cl)[nH]1

melting point [°C]	Compound
257 to 259	COc1cc(OC)c(S(N)(=O)=O)cc1Br
123 to 125	O=C(NCC1CCCNC1)Nc1cccc(F)c1 (configuration not stated)
188 to 190	O=C(O)c1nccnc1-c1nc2ccccc2s1
99 to 101	CC(C)Cn1ncc(C(=O)O)c1C(F)F
225 to 227	NNC(=O)CSc1n[nH]c(=O)[nH]c1=O
97 to 99	NS(=O)(=O)CC(F)(F)F
91 to 93	Cc1nn(-c2ccc(F)cc2)cc1C=O
162 to 164	O=C(O)c1cc([N+](=O)[O-])cc(S(=O)(=O)Cl)c1
91 to 93	O=C(NC=C(Cl)Cl)c1cccc(Br)c1
193 to 195	COc1cc(NC(=O)C2CCCC2)c(C(=O)O)cc1OC
132 to 134	Cc1cc(Oc2ncccn2)ccc1N
93 to 95	O=C(O)CCCCc1ccc(O)c(O)c1
44 to 46	Cc1ccc(N)cc1S(=O)(=O)N1CCCCCC1
150 to 152	CC(Cc1cccc(F)c1)(C(=O)O)C(=O)O
199 to 201	Cc1ccncc1C(=O)O
243 to 245	O=C(O)C=Cc1cncc(O)c1
104 to 106	COC(=O)c1ccc2c(Cl)ncnc2c1
109 to 111	Cc1csc2ccc(Cl)cc2c1=O
116 to 118	Clc1cc(CBr)c2ncccc2c1
199 to 201	Cc1cc(C(=O)O)nn1-c1ccc(Cl)cc1Cl
216 to 218	C=CCn1c(=S)sc2c(=O)[nH]cnc21
128 to 130	N#Cc1cc(F)ccc1-n1ccc(N)n1
48 to 50	CCOc1c(OC)cc(C=O)cc1OC
239 to 241	COc1ccc(-c2ncc(C(=O)O)s2)cc1
84 to 86	CN(C)C(=O)c1cccc(N)c1

melting point [°C]	Compound
133 to 135	O=C(c1ccccc1O)N1CCCCC1
226 to 228	Sc1nnc(-c2ccc3ccccc3c2)o1
78 to 80	C=CCNC(=O)c1ccc(N)cc1
82 to 84	CC(=O)c1ccc(OCC#N)cc1
147 to 149	COc1cc(C(N)=NO)ccc1O
78 to 80	O=C(c1cnc(Cl)c(Cl)c1)N1CCOCC1
131 to 133	Oc1cccc(-n2cccn2)c1
192 to 194	O=C(O)c1csc(-c2ccccc2Cl)n1
50 to 52	Cc1ccc(-n2c(C)cc(CC(=O)O)c2C)cc1
179 to 181	COc1ccc2[nH]cc(C(=O)O)c2c1
204 to 206	Cc1ccc(F)c2c1C(=O)C(=O)N2
264 to 266	N#CC(C#N)=C1Nc2ccccc2N=C1Cl
277 to 279	CCOC(=O)c1sc2nc(CS(=O)(=O)CC(=O)O)[nH]c(=O)c2c1C
120 to 122	Nc1cccc(CS(=O)(=O)Cc2ccccc2)c1
124 to 126	C=CC(=O)Nc1cc(OC)c(Cl)cc1OC
179 to 181	CC(C)CNS(=O)(=O)c1cc(C(=O)O)c(Cl)cc1Cl
159 to 161	CC(Cl)C(=O)Nc1ccc(I)cc1 (configuration not stated)
209 to 211	Nc1ncc(-c2ccc(F)cc2)s1
77 to 79	CCOc1ccc(Br)cc1S(=O)(=O)Nc1ccc(N)cc1
75 to 77	CC1CNc2cc(Cl)ccc2O1 (configuration not stated)
82 to 84	O=S(=O)(Cl)c1ccc(S(F)(F)(F)(F)F)cc1
183 to 185	Cc1ccc2[nH]cc(C(=O)O)c2c1
184 to 186	CCN(CC)c1ccc([N+](=O)[O-])cc1C(=O)O
71 to 73	Cc1ccc(SCCC(=O)O)cc1
125 to 127	CNC(=O)COc1ccc(O)cc1

melting point [°C]	Compound
210 to 212	Cc1cc(S(N)(=O)=O)cc(NC(=O)CCl)c1C
210 to 212	Sc1ncc(-c2ccc(Br)cc2)[nH]1
224 to 226	Cc1nn(-c2ccc(Cl)cc2)cc1C(=O)O
80 to 82	O=C1C(Br)CCCN1c1ccccc1 (configuration not stated)
183 to 185	CCc1ccc(-n2nc(C(=O)O)c3c2CCC3)cc1
47 to 49	CC(C(=O)O)c1ccccc1F (configuration not stated)
89 to 91	Cc1ccc(C)c(C(=O)c2cccc(S(C)(=O)=O)c2)c1
132 to 134	NC(=S)c1cccc([N+](=O)[O-])c1
165 to 167	CC(C)(NC(=O)c1ccccc1)C(N)=S
141 to 143	O=C(O)c1cncnc1-c1ccccc1
219 to 221	O=C(O)Cc1cc2c(cc1[N+](=O)[O-])OCCO2
103 to 107	Clc1nc(CN2CCOCC2)nc2sc3c(c12)CCC3
56 to 58	O=S1(=O)CCC(CCBr)C1 (configuration not stated)
61 to 63	N#CC1(N2CCCC2)CCNCC1
127 to 129	CCOc1ccccc1C(=O)NC(C(=O)O)C(C)C (configuration not stated)
128 to 130	O=C(O)C1CCCCN1C(=O)c1ccccc1 (configuration not stated)
245 to 247	CC(CC(=O)O)NC1=NS(=O)(=O)c2ccccc21 (configuration not stated)
176 to 178	Cc1ccc(C(=O)O)cc1S(=O)(=O)N1CCOCC1
156 to 158	N#Cc1c2c(n(-c3ccccc3)c1NC(=O)CCl)CCCC2
163 to 165	NC(=S)NCc1ccccc1
125 to 127	O=C(O)c1cccc(C(F)F)c1
109 to 111	Nc1ncc(Cc2ccc(Cl)cc2Cl)s1

Compound	melting point [°C]
c1cn(C2CCNCC2)cn1	135 to 137
Cc1cc(N2CCN(C)CC2)ccc1N	100 to 102
c1ccc(CN2CCN(c3ccccc3)CC2)cc1	51 to 53
Cc1cc(Cl)c(CCl)c(Cl)n1	45 to 47
O=C(O)C1(Br)CCCCC1	57 to 59
